For experiment [1], the target named is T1, Tyrosine-protein phosphatase non-receptor type 22 (Homo sapiens, UniProt Q9Y2R2).
T1 sequence (Q9Y2R2 whole entry): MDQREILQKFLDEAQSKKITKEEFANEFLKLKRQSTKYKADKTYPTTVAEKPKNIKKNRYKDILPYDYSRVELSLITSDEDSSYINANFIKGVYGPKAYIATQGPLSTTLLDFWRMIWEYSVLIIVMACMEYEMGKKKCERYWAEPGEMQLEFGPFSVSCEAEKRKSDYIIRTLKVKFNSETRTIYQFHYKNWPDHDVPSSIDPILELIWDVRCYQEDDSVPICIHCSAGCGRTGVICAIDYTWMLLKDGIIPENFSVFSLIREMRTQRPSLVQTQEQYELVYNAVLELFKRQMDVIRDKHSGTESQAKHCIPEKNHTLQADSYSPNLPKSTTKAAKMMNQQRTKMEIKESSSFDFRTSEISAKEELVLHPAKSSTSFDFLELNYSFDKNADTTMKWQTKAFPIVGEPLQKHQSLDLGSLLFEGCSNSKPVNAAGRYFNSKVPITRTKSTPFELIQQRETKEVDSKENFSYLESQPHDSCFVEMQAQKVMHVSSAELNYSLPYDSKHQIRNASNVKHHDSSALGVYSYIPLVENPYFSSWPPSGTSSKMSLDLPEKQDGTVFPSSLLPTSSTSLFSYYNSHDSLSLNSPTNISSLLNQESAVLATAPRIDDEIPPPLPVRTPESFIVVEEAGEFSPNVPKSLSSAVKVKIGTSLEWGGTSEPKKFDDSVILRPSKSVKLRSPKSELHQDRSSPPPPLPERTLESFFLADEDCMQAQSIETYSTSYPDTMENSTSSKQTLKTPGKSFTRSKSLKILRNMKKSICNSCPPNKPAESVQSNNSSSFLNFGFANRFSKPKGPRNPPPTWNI
Nature of the experiment: LYP1 Fluorescent Assay using OMFP substrate for In Vitro dose response studies. [Related pubchem assays (depositor defined):AID1779, AID1784, AID435024].

Experiment [2] deals with T2, Tyrosine-protein phosphatase non-receptor type 7 (Homo sapiens, UniProt P35236).
T2 sequence (P35236 whole entry): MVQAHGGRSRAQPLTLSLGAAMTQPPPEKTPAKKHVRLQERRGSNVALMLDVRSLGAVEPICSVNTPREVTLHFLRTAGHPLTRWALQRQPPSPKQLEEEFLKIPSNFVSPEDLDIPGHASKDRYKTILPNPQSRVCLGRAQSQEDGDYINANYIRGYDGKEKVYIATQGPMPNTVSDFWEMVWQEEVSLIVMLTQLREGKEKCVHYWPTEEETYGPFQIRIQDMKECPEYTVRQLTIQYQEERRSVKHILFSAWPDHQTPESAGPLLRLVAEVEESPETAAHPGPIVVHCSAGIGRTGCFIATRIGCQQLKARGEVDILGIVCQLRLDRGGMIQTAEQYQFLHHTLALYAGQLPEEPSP
It is filed as functional.

The target in experiment [3] is Serine/threonine-protein phosphatase PP1-alpha catalytic subunit (Homo sapiens, UniProt P62136). The experiment in a line: inhibition of protein phosphatase 1 activity – biochemical, fluorescence, dose response (AID 2403).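 Also: phosphatase turnover of OMFP into fluorescent 3-O-methylfluorescein.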
Serine/threonine-protein phosphatase PP1-alpha catalytic subunit, sequence (P62136 whole entry): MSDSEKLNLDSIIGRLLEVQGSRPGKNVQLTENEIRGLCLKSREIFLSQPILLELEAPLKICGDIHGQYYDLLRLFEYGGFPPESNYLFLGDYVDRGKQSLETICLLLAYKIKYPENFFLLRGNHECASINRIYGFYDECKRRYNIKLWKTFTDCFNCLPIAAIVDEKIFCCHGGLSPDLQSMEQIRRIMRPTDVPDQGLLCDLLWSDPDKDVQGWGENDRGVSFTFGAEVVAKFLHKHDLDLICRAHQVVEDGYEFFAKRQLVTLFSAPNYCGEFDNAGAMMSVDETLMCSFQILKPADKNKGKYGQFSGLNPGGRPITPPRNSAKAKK
For experiment [4], the target named is T2, Tyrosine-protein phosphatase non-receptor type 7. The experiment in a line: HTS HePTP Fluorescent Assay using OMFP substrate for In Vitro dose response studies. [Related pubchem assays (depositor defined):AID1059, AID1077, AID1784, AID2068, AID2085, AID435032, AID521]. The format is functional.
Experiment [5] has as its target T1, Tyrosine-protein phosphatase non-receptor type 22. Nature of the experiment: PTPN22 lymphoid phosphatase activity blockers – biochemical, fluorescence intensity, uHTS (AID 1779).
Experiment [6] has as its target Serine/threonine-protein phosphatase (Homo sapiens, UniProt Q9BPW0). The experiment in a line: Counterscreen for inhibitors of PP1: fluorescence-based biochemical high throughput dose response assay to identify inhibitors of Protein Phosphatase 5 (PP5). [Related pubchem assays: 2034 (Summary (PP5 inhibitors)), 1987 (PP5 inhibitors in singlate), 2235 (PP1 inhibitors in singlate)].

The target in experiment [7] is T1, Tyrosine-protein phosphatase non-receptor type 22. It is filed as functional.
The target in a further experiment is ORF 73 (Human herpesvirus 8, UniProt O40947). The experiment in a line: KSHV LANA DNA-binding disruption – biochemical, fluorescence polarization, cherry-picked samples, dose response (AID 504725).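 Also: fluorescence polarization of a labeled DNA duplex reporting LANA DNA binding; potency is for inhibitors that block LANA binding to the DNA.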 Set-up: species or system Human gammaherpesvirus 8. For orientation: In fluorescence polarisation assays a small probe gives low polarisation when free and higher when bound to something large.
ORF 73, sequence (O40947 whole entry): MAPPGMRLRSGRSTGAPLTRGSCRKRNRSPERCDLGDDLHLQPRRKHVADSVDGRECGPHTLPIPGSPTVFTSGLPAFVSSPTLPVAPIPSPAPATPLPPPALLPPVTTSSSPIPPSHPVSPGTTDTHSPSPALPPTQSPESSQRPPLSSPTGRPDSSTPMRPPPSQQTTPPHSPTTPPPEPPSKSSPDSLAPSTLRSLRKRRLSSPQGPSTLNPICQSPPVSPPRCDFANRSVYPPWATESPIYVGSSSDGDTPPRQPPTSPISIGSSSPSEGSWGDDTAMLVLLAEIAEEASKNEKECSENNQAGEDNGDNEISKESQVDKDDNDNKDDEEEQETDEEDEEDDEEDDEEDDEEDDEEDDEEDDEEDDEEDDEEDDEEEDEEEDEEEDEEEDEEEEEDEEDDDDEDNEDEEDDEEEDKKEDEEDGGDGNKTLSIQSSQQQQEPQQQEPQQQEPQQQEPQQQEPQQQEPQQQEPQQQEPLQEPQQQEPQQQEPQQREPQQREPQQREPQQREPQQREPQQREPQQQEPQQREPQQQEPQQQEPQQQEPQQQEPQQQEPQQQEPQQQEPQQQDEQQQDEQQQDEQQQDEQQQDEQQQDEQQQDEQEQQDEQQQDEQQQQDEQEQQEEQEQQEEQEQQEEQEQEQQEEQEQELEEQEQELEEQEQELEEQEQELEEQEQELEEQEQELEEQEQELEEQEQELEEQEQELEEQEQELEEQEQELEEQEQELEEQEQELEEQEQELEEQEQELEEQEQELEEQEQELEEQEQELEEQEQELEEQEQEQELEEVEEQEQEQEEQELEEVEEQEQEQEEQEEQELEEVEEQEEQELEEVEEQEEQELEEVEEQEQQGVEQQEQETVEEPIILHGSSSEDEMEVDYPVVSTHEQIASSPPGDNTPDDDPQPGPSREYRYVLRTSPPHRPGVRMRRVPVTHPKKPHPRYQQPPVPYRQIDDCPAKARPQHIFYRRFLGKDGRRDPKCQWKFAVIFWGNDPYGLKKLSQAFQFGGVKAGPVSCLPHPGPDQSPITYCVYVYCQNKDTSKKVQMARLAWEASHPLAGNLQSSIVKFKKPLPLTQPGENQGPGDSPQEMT

Experiment [8] deals with T1, Tyrosine-protein phosphatase non-receptor type 22. The format is functional. This is another data set of the same source.
The target of experiment [9] is Beta-adrenergic receptor kinase 1 (Homo sapiens, UniProt P25098). Nature of the experiment: aptamer displacement from bead-bound GRK2 – biochemical, cherry pick 1, bead flow cytometry, dose response (AID 504500). In general terms: A flow cytometer gives signals particle by particle.
Beta-adrenergic receptor kinase 1, sequence (P25098 whole entry): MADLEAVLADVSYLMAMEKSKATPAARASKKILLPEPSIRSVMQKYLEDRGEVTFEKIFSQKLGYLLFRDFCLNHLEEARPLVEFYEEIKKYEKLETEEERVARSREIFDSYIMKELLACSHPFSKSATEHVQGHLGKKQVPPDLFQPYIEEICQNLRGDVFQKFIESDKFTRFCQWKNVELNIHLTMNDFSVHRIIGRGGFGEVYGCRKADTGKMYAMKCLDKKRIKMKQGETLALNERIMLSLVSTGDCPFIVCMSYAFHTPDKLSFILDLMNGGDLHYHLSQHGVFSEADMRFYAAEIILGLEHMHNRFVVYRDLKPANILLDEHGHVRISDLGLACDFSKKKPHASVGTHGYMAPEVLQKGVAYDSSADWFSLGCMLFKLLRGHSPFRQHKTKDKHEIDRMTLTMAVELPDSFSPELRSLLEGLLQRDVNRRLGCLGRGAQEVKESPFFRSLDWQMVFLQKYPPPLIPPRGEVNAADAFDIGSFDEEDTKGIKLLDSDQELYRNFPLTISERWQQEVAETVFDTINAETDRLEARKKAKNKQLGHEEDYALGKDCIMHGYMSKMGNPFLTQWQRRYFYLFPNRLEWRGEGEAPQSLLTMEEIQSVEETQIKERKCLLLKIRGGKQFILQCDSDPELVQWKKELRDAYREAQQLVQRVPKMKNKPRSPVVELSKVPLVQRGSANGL
In experiment [10] the target is T3, Apoptotic protease-activating factor 1 (Homo sapiens, UniProt O14727).
T3 sequence (O14727 whole entry): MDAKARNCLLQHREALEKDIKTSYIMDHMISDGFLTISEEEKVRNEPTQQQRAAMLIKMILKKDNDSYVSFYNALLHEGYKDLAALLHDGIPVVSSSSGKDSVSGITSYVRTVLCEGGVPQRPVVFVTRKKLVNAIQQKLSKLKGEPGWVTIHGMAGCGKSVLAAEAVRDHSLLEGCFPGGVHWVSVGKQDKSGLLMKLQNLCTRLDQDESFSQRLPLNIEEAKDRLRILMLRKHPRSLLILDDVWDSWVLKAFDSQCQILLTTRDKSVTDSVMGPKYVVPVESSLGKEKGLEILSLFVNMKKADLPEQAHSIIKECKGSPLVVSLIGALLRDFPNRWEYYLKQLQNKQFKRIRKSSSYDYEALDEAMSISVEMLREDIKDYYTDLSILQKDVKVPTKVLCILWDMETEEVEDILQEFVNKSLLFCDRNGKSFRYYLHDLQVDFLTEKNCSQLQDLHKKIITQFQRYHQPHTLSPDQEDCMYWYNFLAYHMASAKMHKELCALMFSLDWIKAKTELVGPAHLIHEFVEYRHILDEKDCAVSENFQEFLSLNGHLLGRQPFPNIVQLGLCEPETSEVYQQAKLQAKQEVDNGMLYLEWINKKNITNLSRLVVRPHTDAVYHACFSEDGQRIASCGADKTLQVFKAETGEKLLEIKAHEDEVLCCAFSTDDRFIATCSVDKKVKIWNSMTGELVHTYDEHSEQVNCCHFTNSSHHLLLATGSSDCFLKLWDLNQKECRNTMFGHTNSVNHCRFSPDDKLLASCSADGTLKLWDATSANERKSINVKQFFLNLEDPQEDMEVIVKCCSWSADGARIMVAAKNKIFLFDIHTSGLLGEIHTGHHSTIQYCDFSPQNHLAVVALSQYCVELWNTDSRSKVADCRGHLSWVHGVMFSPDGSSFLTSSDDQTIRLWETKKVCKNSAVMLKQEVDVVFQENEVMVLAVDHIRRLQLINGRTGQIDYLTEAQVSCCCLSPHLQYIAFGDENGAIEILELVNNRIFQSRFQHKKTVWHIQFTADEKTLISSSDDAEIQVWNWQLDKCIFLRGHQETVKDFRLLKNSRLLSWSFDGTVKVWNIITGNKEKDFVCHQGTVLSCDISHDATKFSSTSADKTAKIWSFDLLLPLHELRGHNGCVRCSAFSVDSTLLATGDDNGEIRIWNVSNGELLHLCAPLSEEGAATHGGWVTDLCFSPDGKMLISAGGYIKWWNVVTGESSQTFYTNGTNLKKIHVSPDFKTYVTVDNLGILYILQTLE
Nature of the experiment: activation of Apaf-1 mediated apoptosis – fluorescent, uHTS hits, dose response (AID 588554). The format is functional.

Experiment [11] deals with T4, Carboxy-terminal domain RNA polymerase II polypeptide A small phosphatase 1 (Homo sapiens, UniProt Q9GZU7).
T4 sequence (Q9GZU7 whole entry): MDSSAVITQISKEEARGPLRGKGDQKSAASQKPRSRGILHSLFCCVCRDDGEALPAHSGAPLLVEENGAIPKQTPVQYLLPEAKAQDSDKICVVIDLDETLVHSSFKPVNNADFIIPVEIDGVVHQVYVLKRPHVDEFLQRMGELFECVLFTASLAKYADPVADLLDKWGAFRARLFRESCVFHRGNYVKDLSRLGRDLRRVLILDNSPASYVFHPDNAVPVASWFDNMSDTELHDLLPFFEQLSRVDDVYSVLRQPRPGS
Nature of the experiment: CTDSP1 inhibitors, concentration-response, biochemical, absorbance readout, ultra-high-throughput screen actives (AID 540297). The format is functional.

Experiment [12] deals with DNA (cytosine-5)-methyltransferase 1 (Homo sapiens, UniProt P26358). Nature of the experiment: inhibition of DNA methylation by DNMT1 – biochemical, fluorescent molecular beacon, confirmation (AID 602386). The format is functional.
DNA (cytosine-5)-methyltransferase 1, sequence (P26358 whole entry): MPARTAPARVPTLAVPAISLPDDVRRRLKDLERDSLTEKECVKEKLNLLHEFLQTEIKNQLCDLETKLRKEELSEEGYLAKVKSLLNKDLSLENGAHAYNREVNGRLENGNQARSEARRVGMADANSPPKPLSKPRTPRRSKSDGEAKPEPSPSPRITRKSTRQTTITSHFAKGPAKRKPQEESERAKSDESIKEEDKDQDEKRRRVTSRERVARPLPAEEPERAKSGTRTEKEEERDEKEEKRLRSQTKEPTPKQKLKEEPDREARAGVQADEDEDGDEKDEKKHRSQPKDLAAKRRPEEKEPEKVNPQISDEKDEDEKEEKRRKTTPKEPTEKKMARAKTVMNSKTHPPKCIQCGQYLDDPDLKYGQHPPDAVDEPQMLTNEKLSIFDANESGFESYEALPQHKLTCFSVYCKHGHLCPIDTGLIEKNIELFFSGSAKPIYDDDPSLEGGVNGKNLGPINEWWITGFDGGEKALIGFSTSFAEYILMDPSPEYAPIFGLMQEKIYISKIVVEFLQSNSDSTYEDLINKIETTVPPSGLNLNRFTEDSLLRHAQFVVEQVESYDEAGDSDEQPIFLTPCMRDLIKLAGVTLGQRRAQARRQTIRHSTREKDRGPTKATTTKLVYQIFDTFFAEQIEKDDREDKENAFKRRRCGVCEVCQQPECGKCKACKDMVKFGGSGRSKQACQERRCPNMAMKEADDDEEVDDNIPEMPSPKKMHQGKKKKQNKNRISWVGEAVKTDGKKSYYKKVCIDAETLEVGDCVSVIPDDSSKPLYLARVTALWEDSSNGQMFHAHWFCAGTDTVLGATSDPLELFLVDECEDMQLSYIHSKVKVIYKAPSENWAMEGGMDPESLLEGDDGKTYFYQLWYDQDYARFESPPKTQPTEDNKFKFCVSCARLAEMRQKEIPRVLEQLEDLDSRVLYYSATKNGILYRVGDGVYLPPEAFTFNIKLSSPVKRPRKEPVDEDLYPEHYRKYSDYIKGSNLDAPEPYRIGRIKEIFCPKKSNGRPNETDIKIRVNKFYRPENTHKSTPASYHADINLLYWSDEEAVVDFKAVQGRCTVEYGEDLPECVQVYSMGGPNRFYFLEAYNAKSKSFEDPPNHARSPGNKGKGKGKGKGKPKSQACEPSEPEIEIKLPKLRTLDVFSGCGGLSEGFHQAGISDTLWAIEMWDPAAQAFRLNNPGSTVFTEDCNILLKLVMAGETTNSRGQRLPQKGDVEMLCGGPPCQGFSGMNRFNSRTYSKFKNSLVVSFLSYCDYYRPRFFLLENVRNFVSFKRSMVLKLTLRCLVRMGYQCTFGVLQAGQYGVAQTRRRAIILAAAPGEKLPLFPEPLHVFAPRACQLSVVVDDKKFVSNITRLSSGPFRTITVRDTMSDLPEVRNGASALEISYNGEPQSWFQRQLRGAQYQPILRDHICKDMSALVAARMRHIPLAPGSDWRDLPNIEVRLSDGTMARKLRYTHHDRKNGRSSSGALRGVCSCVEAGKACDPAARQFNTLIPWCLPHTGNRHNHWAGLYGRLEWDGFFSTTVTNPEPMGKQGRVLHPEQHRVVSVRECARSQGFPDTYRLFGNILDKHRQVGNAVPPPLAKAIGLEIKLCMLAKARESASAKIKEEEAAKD
A further experiment has as its target DNA topoisomerase (Yersinia pestis, UniProt A0A2S9PM60). Nature of the experiment: Yersinia topoisomerase I cleavage product accumulation – biochemical, cherry-pick, dose response (AID 588525).

Calls of active or inactive are those of the source. Bounds are passed on as bounds.

Serine/threonine-protein phosphatase, sequence (Q9BPW0 whole entry): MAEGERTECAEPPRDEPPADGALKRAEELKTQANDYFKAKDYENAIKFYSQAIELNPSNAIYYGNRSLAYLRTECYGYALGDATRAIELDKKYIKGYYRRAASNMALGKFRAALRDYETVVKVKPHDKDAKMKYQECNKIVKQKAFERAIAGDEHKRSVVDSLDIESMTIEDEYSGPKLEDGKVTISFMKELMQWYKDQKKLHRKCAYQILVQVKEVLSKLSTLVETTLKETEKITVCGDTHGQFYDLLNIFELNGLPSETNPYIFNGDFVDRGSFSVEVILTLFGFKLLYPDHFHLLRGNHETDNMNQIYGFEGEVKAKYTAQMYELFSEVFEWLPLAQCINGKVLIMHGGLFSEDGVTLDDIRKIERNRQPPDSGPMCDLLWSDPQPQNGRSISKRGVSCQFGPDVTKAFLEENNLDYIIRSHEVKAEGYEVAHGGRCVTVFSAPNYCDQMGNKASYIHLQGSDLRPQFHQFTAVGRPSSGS
DNA topoisomerase, sequence (A0A2S9PM60 whole entry): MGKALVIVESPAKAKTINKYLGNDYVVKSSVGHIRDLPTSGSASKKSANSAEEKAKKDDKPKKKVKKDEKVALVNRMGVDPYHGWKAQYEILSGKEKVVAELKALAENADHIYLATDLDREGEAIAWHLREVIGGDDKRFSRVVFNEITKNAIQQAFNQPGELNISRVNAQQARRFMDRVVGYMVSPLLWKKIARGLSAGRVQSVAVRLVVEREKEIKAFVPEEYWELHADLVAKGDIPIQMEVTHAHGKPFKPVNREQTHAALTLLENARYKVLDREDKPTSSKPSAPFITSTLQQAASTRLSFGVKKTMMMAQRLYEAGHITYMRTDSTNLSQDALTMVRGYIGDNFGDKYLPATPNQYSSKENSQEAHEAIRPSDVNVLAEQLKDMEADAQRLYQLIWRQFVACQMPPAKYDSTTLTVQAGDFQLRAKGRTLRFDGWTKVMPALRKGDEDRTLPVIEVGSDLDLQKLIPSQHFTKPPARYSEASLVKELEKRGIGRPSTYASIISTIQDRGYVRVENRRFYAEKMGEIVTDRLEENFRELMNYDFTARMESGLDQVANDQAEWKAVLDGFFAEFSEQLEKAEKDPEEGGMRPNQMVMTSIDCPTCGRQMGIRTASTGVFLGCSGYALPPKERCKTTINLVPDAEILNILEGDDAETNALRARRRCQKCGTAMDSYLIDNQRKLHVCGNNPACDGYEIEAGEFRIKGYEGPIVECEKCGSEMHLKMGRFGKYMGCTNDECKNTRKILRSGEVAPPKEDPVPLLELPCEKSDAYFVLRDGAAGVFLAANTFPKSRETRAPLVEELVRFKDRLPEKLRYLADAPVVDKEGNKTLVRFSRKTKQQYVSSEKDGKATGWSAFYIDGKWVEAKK

For the molecule `CC(C)(CS(=O)(=O)[O-])NC(=O)CC[N+](C)(C)CCO`, the IC50 – broadly, the concentration that gives 50% inhibition – in [1] was 4.28 µM (active); in [2], 17.9 µM (active); in experiment [3] it was 2.46 µM (active); in [4], 28.6 µM (active); in experiment [5], 10.9 µM (active); in [6] it was > 67 µM (not active). The IC50 was 5.97 µM (active) in experiment [7], 4.08 µM (active) in [8], 0.453 µM (active) in [11] and 3.6 µM (active) in [12]. Besides, the concentration at half-maximal activity (AC50) – broadly, the midpoint of the concentration-response curve, whichever way the signal moves – at ORF 73 was 39.8 µM (active). Further, the EC50 (usually the concentration needed to bring the measured effect to its halfway point) in [9] is 0.67 µM (active); in experiment [10], 1.16 µM (active).
For `CCOc1ccc(N2C(=O)CC(N3CCN(c4ccc(C(=O)c5ccncc5)cc4)CC3)C2=O)cc1` (centres undefined), at DNA topoisomerase, the AC50 was 10.6 µM (active).

These data come from ChEMBL document CHEMBL1201862, “PubChem BioAssay data set” (2004).
